Experimental data as given in patent US8557796B2, “Substituted 1-oxa-2,8-diaza-spiro [4,5] dec-2-ene derivatives and related treatment methods” (Gruenenthal GmbH, priority 2001, dated 2013).

These compounds were tested on batrachotoxin (BTX) binding site (binding site 2) of the sodium channel (assay: Bond test on the sodium channel, binding site 2 (BTX bond), [3H]-batrachotoxinin A20 α-benzoate displacement). Conditions: rat cerebrocortex synaptosomes.

SMILES | BTX bond, 10 μM, % inhibition
Cc1ccc(S(=O)(=O)N2CCC3(CC2)CC(C(=O)N(CCc2ccccc2)Cc2ccccc2)=NO3)cc1 [Example 18, 8-(toluene-4-sulphonyl)-1-oxa-2,8-diaza-spiro[4,5]dec-2-ene-3-carboxylic acid benzyl-phenethyl-amide] | 53%
O=C(NCc1cccs1)C1=NOC2(CCN(C(=O)CCCOc3ccccc3)CC2)C1 [Example 183] | 68%
O=C(NCc1cccs1)C1=NOC2(CCN(S(=O)(=O)c3ccc([N+](=O)[O-])cc3)CC2)C1 [Example 38, 8-(4-nitro-benzenesulphonyl)-1-oxa-2,8-diaza-spiro[4,5]dec-2-ene-3-carboxylic acid (thiophen-2-ylmethyl)-amide] | 65%
COc1cccc(CN2CCC(NC(=O)C3=NOC4(CCN(S(=O)(=O)c5cc(Cl)ccc5Cl)CC4)C3)C2)c1 (stereo not drawn) [Example 64] | 91%
CCOC(=O)N1CCC(NC(=O)C2=NOC3(CCN(C(=O)c4ccc(Br)cc4)CC3)C2)CC1 [Example 62, 4-{[8-(4-bromo-benzoyl)-1-oxa-2,8-diaza-spiro[4,5]dec-2-ene-3-carbonyl]-amino)-piperidine-l-carboxylic acid ethyl ester] | 49%
Cc1cccc(N2CCN(C(=O)C3=NOC4(CCN(S(=O)(=O)c5cccs5)CC4)C3)CC2C)c1 (stereo not drawn) [Example 31, (3-methyl-4-m-tolyl-piperazin-l-yl)-[8-(thiophene-2-sulphonyl)-1-oxa-2,8-diaza-spiro[4,5]dec-2-en-3-yl]-methanone] | 80%
CC(NC(=O)C1=NOC2(CCN(S(=O)(=O)c3cccs3)CC2)C1)c1cccc2c1OCCO2 (stereo not drawn) [Example 84, 8-(thiophene-2-sulphonyl)-1-oxa-2,8-diaza-spiro[4,5]dec-2-ene-3-carboxylic acid [1-(2,3-dihydro-benzo[1,4]dioxin-5-yl)-ethyl]-amide] | 58%
C=C(C)CN(CC)C(=O)C1=NOC2(CCN(S(=O)(=O)c3ccc(OC(F)(F)F)cc3)CC2)C1 [Example 103, 8-(4-trifluoromethoxy-benzenesulphonyl)-1-oxa-2,8-diaza-spiro[4,5]dec-2-ene-3carboxylic acid ethyl-(2-methyl-allyl)-amide] | 53%
O=C(NCc1ccccc1)C1=NOC2(CCN(C(=O)COCc3ccccc3)CC2)C1 [Example 171, 8-(2-benzyloxy-acetyl)-1-oxa-2,8-diaza-spiro[4,5]dec-2-ene-3-carboxylic acid benzylamide] | 44%
O=C(C1=NOC2(CCN(S(=O)(=O)c3cc(Cl)ccc3Cl)CC2)C1)N1CCN(Cc2ccccc2)CC1 [Example 209, (4-benzyl-piperazin-l-yl)-[8-(2,5-dichloro-benzenesulphonyl)-1-oxa-2,8-diaza-spiro[4,5]dec-2-en-3-yl]-methanone] | 61%
O=C(C1=NOC2(CCN(S(=O)(=O)c3cccs3)CC2)C1)N1CCN(C2CCCCCC2)CC1 [Example 3, (4-cycloheptyl-piperazin-l-yl)-[8-(thiophene-2-sulphonyl)-1-oxa-2,8-diaza-spiro [4,5]dec-2-en-3-yl]-methanone] | 78%
O=C(C1=NOC2(CCN(S(=O)(=O)c3ccc(OC(F)(F)F)cc3)CC2)C1)N(CCc1ccccc1)Cc1ccccc1 [Example 97, 8-(4-trifluoromethoxy-benzenesulphonyl)-1-oxa-2,8-diaza-spiro[4,5]dec-2-ene-3-carboxylic acid benzyl-phenethyl-amide] | 79%
O=C(NCc1cccs1)C1=NOC2(CCN(S(=O)(=O)c3ccc(Cl)cc3)CC2)C1 [Example 127, 8-(4-chloro-benzenesulphonyl)-1-oxa-2,8-diaza-spiro[4,5]dec-2-ene-3-carboxylic acid (thiophen-2-ylmethyl)-amide] | 70%
Cc1ccc(S(=O)(=O)N2CCC3(CC2)CC(C(=O)N(CCC#N)Cc2ccccc2)=NO3)cc1 [Example 28, 8-(toluene-4-sulphonyl)-1-oxa-2,8-diaza-spiro[4,5]dec-2-ene-3-carboxylic acid benzyl-(2-cyano-ethyl)-amide] | 52%
CN(Cc1cccnc1)C(=O)C1=NOC2(CCN(S(=O)(=O)c3cc(Cl)ccc3Cl)CC2)C1 [Example 92, 8-(2,5-dichloro-benzenesulphonyl)-1-oxa-2,8-diaza-spiro[4,5]dec-2-ene-3-carboxylic acid methyl-pyridin-3-ylmethyl-amide] | 65%
CCOP(=O)(Cc1ccc(NC(=O)C2=NOC3(CCN(S(=O)(=O)Cc4ccccc4)CC3)C2)cc1)OCC [Example 2] | 55%
O=C(NCC(c1ccccc1)c1ccccc1)C1=NOC2(CCN(S(=O)(=O)c3ccc(Cl)s3)CC2)C1 [Example 79, 8-(5-chloro-thiophene-2-sulphonyl)-1-oxa-2,8-diaza-spiro[4,5]dec-2-ene-3-carboxylic acid (2,2-diphenyl-ethyl)-amide] | 83%
Cc1ccc([N+](=O)[O-])cc1S(=O)(=O)N1CCC2(CC1)CC(C(=O)NCCN(C)C)=NO2 [Example 19, 8-(2-methyl-5-nitro-benzenesulphonyl)-1-oxa-2,8-diaza-spiro[4,5]dec-2-ene-3 carboxylic acid (2-dimethylamino-ethyl)-amide] | 66%

SMILES | BTX bond, 10 μM, % inhibition
COc1ccc(S(=O)(=O)N2CCC3(CC2)CC(C(=O)NC(C)Cc2ccc(Cl)cc2)=NO3)cc1 (stereo not drawn) [Example 164, 8-(4-methoxy-benzenesulphonyl)-1-oxa-2,8-diaza-spiro[4,5]dec-2-ene-3-carboxylic acid [2-(4-chloro-phenyl)-1-methyl-ethyl]-amide] | 52%
Cc1ccccc1N1CCN(C(=O)C2=NOC3(CCN(S(=O)(=O)Cc4ccccc4)CC3)C2)CC1 [Example 133, (8-phenylmethanesulphonyl-1-oxa-2,8-diaza-spiro[4,5]dec-2-en-3-yl)-(4-o-tolyl-piperazin-l-yl)-methanone] | 47%
O=C(NC(c1ccccc1)c1ccccc1)C1=NOC2(CCN(S(=O)(=O)c3ccc(Cl)s3)CC2)C1 [Example 40, 8-(5-chloro-thiophene-2-sulphonyl)-1-oxa-2,8-diaza-spiro[4,5]dec-2-ene-3 carboxylic acid benzhydryl-amide] | 47%
O=C(NC1CCCC1)C1=NOC2(CCN(C(=O)c3ccccc3COC(=O)c3ccccc3)CC2)C1 [Example 188] | 77%
O=C(C1=NOC2(CCN(S(=O)(=O)c3cccc(C(F)(F)F)c3)CC2)C1)N1CCN(Cc2ccc3ccccc3c2)CC1 [Example 35, (4-naphthalen-2-ylmethyl-piperazin-l-yl)-[8-(3-trifluoromethyl-benzenesulphonyl)-1-oxa-2,8-diaza-spiro[4,5]dec-2-en-3-yl]-methanone] | 50%
COc1cc(OC)cc(N2CCN(C(=O)C3=NOC4(CCN(S(=O)(=O)c5ccc(Cl)s5)CC4)C3)CC2)c1 [Example 71, [8-(5-chloro-thiophene-2-sulphonyl)-1-oxa-2,8-diaza-spiro[4,5]dec-2-en-3-yl]-[4-(3,5-dimethoxy-phenyl)-piperazin-l-yl]-methanone] | 54%
O=C(C1=NOC2(CCN(S(=O)(=O)c3ccc(F)cc3)CC2)C1)N1CCN(C2CCCCCC2)CC1 [Example 218] | 79%
O=C(NCc1cccs1)C1=NOC2(CCN(C(=O)C=Cc3ccccc3)CC2)C1 [Example 106] | 62%
O=C(NCc1ccccc1)C1=NOC2(CCN(S(=O)(=O)c3cccc(Cl)c3)CC2)C1 [Example 210, 8-(3-chloro-benzenesulphonyl)-1-oxa-2,8-diaza-spiro[4,5]dec-2-ene-3-carboxylic acid benzylamide] | 62%
O=C(NCCc1cccc(C(F)(F)F)c1)C1=NOC2(CCN(S(=O)(=O)c3ccc(F)cc3)CC2)C1 [Example 196] | 51%
COCCOCC(=O)N1CCC2(CC1)CC(C(=O)NCc1ccccc1)=NO2 [Example 87, 8-[2-(2-methoxy-ethoxy)-acetyl]-1-oxa-2,8-diaza-spiro[4,5]dec-2-ene-3-carboxylic acid benzylamide] | 42%
O=C(NCc1cccs1)C1=NOC2(CCN(C(=O)c3ccc(Br)cc3)CC2)C1 [Example 141] | 61%
O=C(NC1CCCC1OCc1ccccc1)C1=NOC2(CCN(S(=O)(=O)c3ccc(F)cc3)CC2)C1 (stereo not drawn) [Example 199] | 67%
CCN(CCNC(=O)C1=NOC2(CCN(S(=O)(=O)N(C)C)CC2)C1)c1cccc(C)c1 [Example 216, 8-dimethylsulphamoyl-1-oxa-2,8-diaza-spiro[4,5]dec-2-ene-3-carboxylic acid [2-(ethyl-m-tolyl-amino)-ethyl]amide] | 64%
CN(C)S(=O)(=O)N1CCC2(CC1)CC(C(=O)N1CCN(CCCc3ccccc3)CC1)=NO2 [Example 80, 3-[4-(3-phenyl-propyl)-piperazine-1-carbonyl]-1-oxa-2,8-diaza-spiro[4,5]dec-2-ene-8-sulphonic acid dimethylamide] | 44%
CN(C)S(=O)(=O)N1CCC2(CC1)CC(C(=O)NC1CCCC1OCc1ccccc1)=NO2 (stereo not drawn) [Example 163, 8-dimethylsulphamoyl-1-oxa-2,8-diaza-spiro[4,5]dec-2-ene-3-acarboxylic cid (2-benzyloxy-cyclopentyl)-amide] | 40%
Cc1ccc(C(C)NC(=O)C2=NOC3(CCN(S(=O)(=O)c4cccs4)CC3)C2)cc1 (stereo not drawn) [Example 23, 8-(thiophene-2-sulphonyl)-1-oxa-2,8-diaza-spiro[4,5]dec-2-ene-3-carboxylic acid (1-p-tolyl-ethyl)-amide] | 60%

Same assay, conditions: rat cerebrocortex synaptosomes, 10 µM

SMILES | BTX bond, 10 μM, % inhibition
Cc1ccc(S(=O)(=O)N2CCC3(CC2)CC(C(=O)NC2CCCC2OCc2ccccc2)=NO3)cc1 (stereo not drawn) [Example 67, 8-(toluene-4-sulphonyl)-1-oxa-2,8-diaza-spiro[4,5]dec-2-ene-3-carboxylic acid (2-benzyloxy-cyclopentyl)-amide] | 80%
